Measurements taken from paper PMC6817585, “Simultaneous Determination of Five Alkaloids by HPLC-MS/MS Combined With Micro-SPE in Rat Plasma and Its Application to Pharmacokinetics After Oral Administration of Lotus Leaf Extract” (Frontiers in Pharmacology, 2019).
Like-named read-outs stand apart in the source and are kept apart here.

Columns and labels:
[1] = Stability of stock and working solutions; assay type: physicochemical; settings: for Remain, working solution: n = 6
Method: (§1) The stabilities (including auto-sampler, freeze–thaw cycles, and short-time and long-term stability) of all analytes were obtained by testing QC samples of four concentrations. Moreover, the stabilities for stock and working solution were assessed with mixed standard substance (100 ng·ml^−1) and the QC sample solutions of four concentration levels, respectively. These solutions were achieved by diluting stock solutions kept at 4°C for 2 weeks. For IS, the evaluated procedures of two stabilities were same as the five alkaloids.

[2] = Pharmacokinetics of five alkaloids in rat plasma after oral administration of lotus leaf extract; assay type: in vivo, Male Sprague-Dawley rats; settings: rat; for AUC / AUC(0-inf) / Cmax / MRT / MRT inf / Tmax / half-life: male, Sprague-Dawley, 2.4 g/kg
Method: All analyses were performed on Agilent 1200 HPLC system (Agilent Corporation, USA) and API 3200 triple-quadrupole mass spectrometer (Concord, Ontario, Canada) in multiple-reaction monitoring (MRM) with positive ionization mode. Acetonitrile (A) and formic acid aqueous solution (B) (0.1%, v/v) is used to separate the analytes on Eclipse plus C18 column (4.6 mm × 100 mm, 1.8 µm) with a guard C18 column (2.1 mm × 12.5 mm, 5 µm). The gradient of elution is as follows: 5%–60% A at 0 to 4 min, 60%–70% A at 4 to 5 min, 70%–93% A at 5 to 7 min, 93%–94% A at 7 to 11 min, 94%–5% A at 11 to 12 min, and 5%–5% A at 12 to 17 min. The flow rate and injection volume are 0.3 ml·min^-1 and 5 µl, respectively. The main parameters of ion source including the ion spray voltage, the curtain gas, and temperature are set at 5000 V, 35 psi, and 450°C, respectively.
The real plasma sample (100 µl) and IS solution (10 µl) were vortex-mixed for 1 min. The sample was carried out with the SPE column (Cleanert PEP-2, 40–60 µm, 60 Å, 10 mg/1 ml; Phenomenex, Torrance, CA, USA). First, SPE columns were activated by 50% methanol in water (1 ml) and 0.1% formic acid in water (1 ml) and were used to activate the SPE column in sequence. Second, columns were washed with 200 µl methanol (20%, v/v) and eluted with acetonitrile (400 µl) after the plasma samples were added. Finally, the eluent was centrifuged for 10 min with 14,000 rpm. Then final solutions were injected into the HPLC-MS/MS and analyzed.
The pharmacokinetic study was conducted in accordance with the Guidelines for the Care and Use of Laboratory Animals by the US National Institutes of Health and approved by the Animal Ethics Committee of Tianjin University of Traditional Chinese Medicine (permit number: TCM-LAEC2019022, Tianjin, China),. Male Sprague-Dawley rats (240–260 g) were fed in the animal laboratory of the Tianjin University of Traditional Chinese Medicine under the standard conditions. These rats were allowed free to get standard laboratory food and water and conformed for 1 week until 12 h before experiment. These rats (n = 10) were fasted, although they were still given water for 12 h, before the oral administration of lotus leaf extract. […] The plasma samples were centrifuged in 10 min at 7000 rpm and kept at −20°C until analyzed.
All of the pharmacokinetic parameters were calculated by one compartment model with DAS 1.0 software (Medical College of Wannan). The maximum drug concentration (Cmax) and the time to reach Cmax (Tmax) were acquired from observed concentration–time profile for oral administration in plasma. All data were shown as mean ± SD.

[3] = Stability of analytes in rat plasma QC samples (auto-sampler, freeze-thaw, short-time, long-term); assay type: in vitro ADME
Method: as §1

[4] = concentration LLOQ, from stock kept at 4°C for 2 weeks

Structure (SMILES): COc1cc2c(cc1OC)-c1cc3ccc(OC)c(OC)c3c[n+]1CC2 [IS, palmatine chloride, reference compound]
- Remain, stock solution ([1]; stock solution kept at 4°C for 2 weeks): 114%

Structure (SMILES): O=C1c2ccccc2-c2c3c(cc4ccnc1c24)OCO3 [Liriodenine, liriodenine]
- Remain, working solution ([1]; 1 ng/ml): 96.9%
- Remain, working solution ([1]; 40 ng/ml): 91.7%
- Remain, working solution ([1]; 200 ng/ml): 112%
- Remain, working solution [1, 4]: 105%
- AUC ([2]; in vivo, po, rat plasma, oral lotus leaf extract 2.4 g·kg^−1, n = 10, mean ± SD, read-out: AUC(0–tn)): 415 ± 200 ng·h/mL
- AUC(0-inf) ([2]; in vivo, po, rat plasma, oral lotus leaf extract 2.4 g·kg^−1, n = 10, mean ± SD, read-out: AUC(0–∞)): 429 ± 199 ng·h/mL
- Cmax ([2]; in vivo, po, rat plasma, oral lotus leaf extract 2.4 g·kg^−1, n = 10, mean ± SD, read-out: Cmax): 54.7 ± 31.8 ng/mL
- MRT ([2]; in vivo, po, rat plasma, oral lotus leaf extract 2.4 g·kg^−1, n = 10, mean ± SD, read-out: MRT(0–tn)): 7.11 ± 1.21 h
- MRT inf ([2]; in vivo, po, rat plasma, oral lotus leaf extract 2.4 g·kg^−1, n = 10, mean ± SD, read-out: MRT(0–∞)): 8.17 ± 1.86 h
- Tmax ([2]; in vivo, po, rat plasma, oral lotus leaf extract 2.4 g·kg^−1, n = 10, mean ± SD, read-out: Tmax): 5.7 ± 2.83 h
- half-life ([2]; in vivo, po, rat plasma, oral lotus leaf extract 2.4 g·kg^−1, n = 10, one compartment model, mean ± SD, read-out: T1/2 (converted)): 3.77 ± 1.15 h
- Absorption after orally administrating the lotus leaf extract (in words) ([2]; oral lotus leaf extract 2.4 g·kg^−1): slow absorption
- Remain, autosampler for 24 h ([3]; rat plasma QC, autosampler 24 h, 1 ng/ml, n = 6): 86.0%
- Remain, autosampler for 24 h ([3]; rat plasma QC, autosampler 24 h, 40 ng/ml, n = 6): 105%
- Remain, autosampler for 24 h ([3]; rat plasma QC, autosampler 24 h, 200 ng/ml, n = 6): 96.8%
- Remain, autosampler for 24 h ([3]; rat plasma QC, autosampler 24 h, LLOQ, n = 6): 95.7%
- Remain, freeze thaw cycles ([3]; rat plasma QC, freeze thaw cycles, 1 ng/ml, n = 6): 86.9%
- Remain, freeze thaw cycles ([3]; rat plasma QC, freeze thaw cycles, 40 ng/ml, n = 6): 92.7%
- Remain, freeze thaw cycles ([3]; rat plasma QC, freeze thaw cycles, 200 ng/ml, n = 6): 90.5%
- Remain, freeze thaw cycles ([3]; rat plasma QC, freeze thaw cycles, LLOQ, n = 6): 91.7%
- Remain, room temperature for 24 h ([3]; rat plasma QC, room temperature 24 h, 1 ng/ml, n = 6): 87.9%
- Remain, room temperature for 24 h ([3]; rat plasma QC, room temperature 24 h, 40 ng/ml, n = 6): 96.9%
- Remain, room temperature for 24 h ([3]; rat plasma QC, room temperature 24 h, 200 ng/ml, n = 6): 102%
- Remain, room temperature for 24 h ([3]; rat plasma QC, room temperature 24 h, LLOQ, n = 6): 92.9%
- Remain, −80°C for 1 month ([3]; rat plasma QC, −80°C 1 month, 1 ng/ml, n = 6): 107%
- Remain, −80°C for 1 month ([3]; rat plasma QC, −80°C 1 month, 40 ng/ml, n = 6): 105%
- Remain, −80°C for 1 month ([3]; rat plasma QC, −80°C 1 month, 200 ng/ml, n = 6): 104%
- Remain, −80°C for 1 month ([3]; rat plasma QC, −80°C 1 month, LLOQ, n = 6): 98.9%

Structure (SMILES): COc1cc2c(cc1OC)C(Cc1ccc(O)cc1)N(C)CC2 (stereo not drawn) [Armepavine, armepavine]
- Remain, working solution ([1]; 1 ng/ml): 98.8%
- Remain, working solution ([1]; 20 ng/ml): 95.8%
- Remain, working solution ([1]; 100 ng/ml): 101%
- Remain, working solution [1, 4]: 96.3%
- AUC ([2]; in vivo, po): 28.6 ± 16.5 ng·h/mL
- AUC(0-inf) ([2]; in vivo, po): 53.8 ± 34.6 ng·h/mL
- Cmax ([2]; in vivo, po): 8.78 ± 7.78 ng/mL
- MRT ([2]; in vivo, po): 7.23 ± 1.93 h
- MRT inf ([2]; in vivo, po): 31.9 ± 25.9 h
- Tmax ([2]; in vivo, po): 0.3 ± 0.11 h
- half-life ([2]; in vivo, po): 5.22 ± 5.09 h
- Absorption after orally administrating the lotus leaf extract (in words) ([2]; in vivo, po): fast absorption
- Remain, freeze thaw cycles ([3]; rat, plasma): 103%
- Remain, freeze thaw cycles ([3]; rat, plasma, 1 ng/ml): 107%
- Remain, freeze thaw cycles ([3]; rat, plasma, 20 ng/ml): 111%
- Remain, freeze thaw cycles ([3]; rat, plasma, 100 ng/ml): 85.2%
- Remain, −80°C for 1 month ([3]; rat, plasma, 1 month): 109%
- Remain, −80°C for 1 month ([3]; rat, plasma, 1 month, 1 ng/ml): 107%
- Remain, −80°C for 1 month ([3]; rat, plasma, 1 month, 20 ng/ml): 113%
- Remain, −80°C for 1 month ([3]; rat, plasma, 1 month, 100 ng/ml): 107%
- Remain, autosampler for 24 h ([3]; rat, plasma, 24 h): 87.6%
- Remain, room temperature for 24 h ([3]; rat, plasma, 24 h): 91.5%
- Remain, autosampler for 24 h ([3]; rat, plasma, 24 h, 1 ng/ml): 90.8%
- Remain, room temperature for 24 h ([3]; rat, plasma, 24 h, 1 ng/ml): 104%
- Remain, autosampler for 24 h ([3]; rat, plasma, 24 h, 20 ng/ml): 114%
- Remain, room temperature for 24 h ([3]; rat, plasma, 24 h, 20 ng/ml): 118%
- Remain, autosampler for 24 h ([3]; rat, plasma, 24 h, 100 ng/ml): 87.4%
- Remain, room temperature for 24 h ([3]; rat, plasma, 24 h, 100 ng/ml): 110%
